This note sets out measurements from patent publication US8557738B2, “Nitrogen-containing heterocyclic derivative and fungicide for agricultural and horticultural use” (Nippon Soda Co., Ltd., priority 2008, dated 2013).

Usually melting point stands for the temperature, or range, at which the solid turns liquid. As to `c1ccc2c(c1)N=C(c1cnc3ccccc3c1)c1ccccc1O2` [B1-83, 11-Quinolin-3-yl-dibenzo[b,f][1,4]oxazepine], the melting point was 182 to 184 °C.

As to `CC1(C)CNC(c2cnc3c(F)cccc3c2)c2cccc(F)c2O1` (centres unmarked) [B4-47, 9-Fluoro-5-(8-fluoro-quinolin-3-yl)-2,2-dimethyl-2,3,4,5-tetrahydro-benzo[f][1,4]oxazepine], the melting point fell in the range of 130 to 131 °C. For `CC1(C)CN=C(c2cnc3ccccc3c2)c2cccc(Cl)c2O1.Cl` the value was 149 to 151 °C; for `CC1(C)CN=C(c2cnc3c(F)cccc3c2)c2ccccc2O1` [B1-37, 5-(8-Fluoro-quinolin-3-yl)-2,2-dimethyl-2,3-dihydro-benzo[f][1,4]oxazepine], 165 to 167 °C.

In turn, `CC1(C)CN=C(c2cnc3c(Cl)cccc3c2)c2cccc(Cl)c2O1` [B1-41, 2,2-Dimethyl-9-chloro-5-(8-chloro-quinolin-3-yl)-2,3-dihydro-benzo[f][1,4]oxazepine] registered a melting point of 214 to 217 °C. For `CC1(C)CNC(c2cnc3c(F)cccc3c2)c2cccc(Cl)c2O1` (centres unmarked) [B4-49, 9-Chloro-5-(8-fluoro-quinolin-3-yl)-2,2-dimethyl-2,3,4,5-tetrahydro-benzo[f][1,4]oxazepine] the value was 133 to 134 °C; for `CC1(C)N=C(c2cnc3c(F)cccc3c2)c2cccc(F)c2OC1(C)C` [B1-45, 9-Fluoro-5-(8-fluoro-quinolin-3-yl)-2,2,3,3-tetramethyl-2,3-dihydro-benzo[f][1,4]oxazepine], 144 to 145 °C; for `CCN1CC(C)(C)Oc2c(F)cccc2C1c1cnc2c(F)cccc2c1` (centres unmarked) [B4-48, 4-Ethyl-9-fluoro-5-(8-fluoro-quinolin-3-yl)-2,2-dimethyl-2,3,4,5-tetrahydro-benzo[f][1,4]oxazepine], 117 to 118 °C. For `CC1(C)CN(C=O)C(c2cnc3c(F)cccc3c2)c2cccc(F)c2O1` (centres unmarked) [B4-51, 9-Fluoro-5-(8-fluoro-quinolin-3-yl)-2,2-dimethyl-2,3-dihydro-5H-benzo[f][1,4]oxazepine-4-carbaldehyde] the value was 131 to 133 °C; for `COc1cccc2c1OC(C)(C)CN=C2c1cnc2ccccc2c1` [B1-55, 9-Methoxy-2,2-dimethyl-5-quinolin-3-yl-2,3-dihydro-benzo[f][1,4]oxazepine], 153 to 155 °C; for `CC(=O)N1CC(C)(C)Oc2c(F)cccc2C1c1cnc2c(F)cccc2c1` (centres unmarked) [B4-52, 1-[9-Fluoro-5-(8-fluoro-quinolin-3-yl)-2,2-dimethyl-2,3-dihydro-5H-benzo[f][1,4]oxazepin-4-yl]-ethanone], 132 to 134 °C. For `CC1(Cl)CN=C(c2cnc3ccccc3c2)c2cccc(F)c2O1` (centres unmarked) [B1-30, 2-Chloro-9-fluoro-2-methyl-5-(3-quinolinyl)-2,3-dihydro-benzo[f][1,4]oxazepine] the value was 123 to 125 °C; for `CC1(C)N=C(c2cnc3ccccc3c2)c2cccc(F)c2OC1(C)C` [B1-43, 9-Fluoro-5-(3-quinolinyl)-2,2,3,3-tetramethyl-2,3-dihydro-benzo[f][1,4]oxazepine], 132 to 133 °C; for `CC1(C)CN=C(c2cnc3c(F)cccc3c2)c2cccc(F)c2S1` [B2-15, 4-Fluoro-9-(8-fluoro-quinolin-3-yl)-6,6-dimethyl-6,7-dihydro-5-thia-8-aza-benzocycloheptene], 179 to 181 °C. Turning to `CCC1(C)CN=C(c2cnc3c(F)cccc3c2)c2ccccc2O1` (centres unmarked) [B1-47, 2-Ethyl-5-(8-fluoro-quinolin-3-yl)-2-methyl-2,3-dihydro-benzo[f][1,4]oxazepine], the melting point was in the range of 93 to 95 °C.

On to `CCC1(C)CN=C(c2cnc3c(F)cccc3c2)c2cccc(F)c2O1` (centres unmarked) [B1-49, 2-Ethyl-9-fluoro-5-(8-fluoro-quinolin-3-yl)-2-methyl-2,3-dihydro-benzo[f][1,4]oxazepine], for which the melting point lay within 140 to 142 °C.

Turning to `CC1(C)CN=C(c2cnc3c(Cl)cccc3c2)c2ccccc2O1` [B1-46, 5-(8-Chloro-quinolin-3-yl)-2,2-dimethyl-2,3-dihydro-benzo[f][1,4]oxazepine], the melting point was 155 to 157 °C.

`CC1(C)COc2cc(F)ccc2C(c2cnc3ccccc3c2)=N1` [B1-85, 8-Fluoro-3,3-dimethyl-5-quinolin-3-yl-2,3-dihydro-benzo[f][1,4]oxazepine]: the melting point was in the range of 133 to 135 °C.

Regarding `Cc1cccc2ncc(C3=NCC(C)(C)Oc4c(Cl)cccc43)cc12` [B1-58, 9-Chloro-2,2-dimethyl-5-(5-methyl-quinolin-3-yl)-2,3-dihydro-benzo[f][1,4]oxazepine], the melting point was in the range of 160 to 162 °C. For `CC1(C)Oc2ccccc2C(c2cnc3ccccc3c2)NC1=O` (centres unmarked) [B4-53, 2,2-Dimethyl-5-quinolin-3-yl-4,5-dihydro-benzo[f][1,4]oxazepin-3-one] the value was 225 to 227 °C. For `Cc1cc(C2=NCCOc3c(Cl)cccc32)cnc1C` the value was 142 to 143 °C; for `CC1(C)CN=C(c2cnc3cccc(Cl)c3c2)c2cccc(Cl)c2O1` [B1-57, 9-Chloro-5-(5-chloro-quinolin-3-yl)-2,2-dimethyl-2,3-dihydro-benzo[f][1,4]oxazepine], 157 to 159 °C; for `CCC1(C)CN=C(c2cnc3c(F)cccc3c2)c2cccc(Cl)c2O1` (centres unmarked) [B1-48, 9-Chloro-2-ethyl-5-(8-fluoro-quinolin-3-yl)-2-methyl-2,3-dihydro-benzo[f][1,4]oxazepine], 144 to 146 °C.

In turn, `CC1(C)CN=C(c2cnc3c(F)cccc3c2)c2cccc(F)c2O1` [B1-38, 2,2-Dimethyl-9-fluoro-5-(8-fluoro-quinolin-3-yl)-2,3-dihydro-benzo[f][1,4]oxazepine] gave a melting point of 171 to 173 °C. For `Cc1cccc2cc(C3=NCC(C)(C)Oc4c(Cl)cccc43)cnc12` [B1-40, 9-Chloro-2,2-dimethyl-5-(8-methylquinolin-3-yl)-2,3-dihydro-benzo[f][1,4]oxazepine] the value was 145 to 147 °C; for `CC1(C)CN=C(c2cnc3c(F)cccc3c2)c2cccc(F)c2O1.O=C(O)C(F)(F)F`, 174 to 176 °C. For `CC1(C)CN=C(c2cnc3c(F)cccc3c2)c2ccccc2S1` [B2-13, 2,2-Dimethyl-5-(8-fluoro-quinolin-3-yl)-2,3-dihydro-benzo[f][1,4]thiazepine] the value was 181 to 183 °C; for `Fc1cccc2c1C(c1cnc3ccccc3c1)=NCCO2`, 126 to 128 °C. For `CC1(C)CN=C(c2cnc3ccccc3c2)c2cccc(Cl)c2O1.O=C(O)C(F)(F)F` the value was 129 to 131 °C; for `Cc1ccc2ncc(C3=NCC(C)(C)Oc4c(Cl)cccc43)cc2c1` [B1-60, 9-Chloro-2,2-dimethyl-5-(6-methylquinolin-3-yl)-2,3-dihydro-benzo[f][1,4]oxazepine], 166 to 168 °C; for `CC1(c2ccccc2)CN=C(c2cnc3ccccc3c2)c2ccccc2O1` (centres unmarked) [B1-52, 2-Methyl-2-phenyl-5-quinolin-3-yl-2,3-dihydro-benzo[f][1,4]oxazepine], 196 to 197 °C.

In turn, `CC1N=C(c2cnc3ccccc3c2)c2ccccc2OC1(C)C` (centres unmarked) [B1-42, 5-(3-Quinolinyl)-2,2,3-trimethyl-2,3-dihydro-benzo[f][1,4]oxazepine] displayed a melting point of 139 to 142 °C.
